{
  "source": "paper PMC4117522",
  "about": "“Proteasome Inhibitors Alter Levels of Intracellular Peptides in HEK293T and SH-SY5Y Cells” (PLoS ONE, 2014)",
  "key": {"[1]": {"molecular_target": "T1, recombinant human puromycin-sensitive aminopeptidase (PSAP, rhNPEPPS) (Homo sapiens, UniProt P55786)", "T1 construct": "purchased R&D Systems", "T1 sequence (P55786 whole entry)": "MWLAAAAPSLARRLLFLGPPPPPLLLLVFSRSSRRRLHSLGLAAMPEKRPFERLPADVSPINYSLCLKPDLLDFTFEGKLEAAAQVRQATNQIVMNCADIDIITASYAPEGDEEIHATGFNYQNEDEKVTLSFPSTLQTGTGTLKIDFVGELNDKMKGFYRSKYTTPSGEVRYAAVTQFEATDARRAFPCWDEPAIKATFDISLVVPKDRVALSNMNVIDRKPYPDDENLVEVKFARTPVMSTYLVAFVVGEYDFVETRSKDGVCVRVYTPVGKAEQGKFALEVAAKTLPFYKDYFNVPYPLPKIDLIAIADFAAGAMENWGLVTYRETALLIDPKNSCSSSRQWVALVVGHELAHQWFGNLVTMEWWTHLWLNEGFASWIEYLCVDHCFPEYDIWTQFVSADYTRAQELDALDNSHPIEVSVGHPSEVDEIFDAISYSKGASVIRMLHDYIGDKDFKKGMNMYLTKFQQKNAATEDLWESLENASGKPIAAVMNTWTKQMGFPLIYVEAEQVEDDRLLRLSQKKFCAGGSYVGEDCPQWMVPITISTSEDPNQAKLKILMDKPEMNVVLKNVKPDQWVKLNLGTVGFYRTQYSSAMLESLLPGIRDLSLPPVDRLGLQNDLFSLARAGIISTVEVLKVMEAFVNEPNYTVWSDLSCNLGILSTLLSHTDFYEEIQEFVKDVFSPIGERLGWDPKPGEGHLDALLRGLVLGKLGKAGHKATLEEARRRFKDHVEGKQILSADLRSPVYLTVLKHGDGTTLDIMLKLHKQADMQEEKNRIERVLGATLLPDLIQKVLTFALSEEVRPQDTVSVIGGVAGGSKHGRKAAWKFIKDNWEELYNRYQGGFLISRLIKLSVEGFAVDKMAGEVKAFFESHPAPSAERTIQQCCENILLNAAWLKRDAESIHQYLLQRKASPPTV", "assay": "Cleavage of Leu-AMC and Ala-AMC by purified recombinant PSAP", "type": "biochemical", "details": "10 µM inhibitor, Ala-AMC", "description": "To measure the effect of inhibitors on cleavage of Leu-AMC and Ala-AMC by purified PSAP, recombinant human PSAP (rhNPEPPS, R&D Systems) was diluted 1∶2000 in Buffer 2 containing 0.1 mg/ml BSA. The enzyme was pre-incubated with the inhibitor and Buffers 1 or 2, followed by addition of 100 µM final concentration of Leu-AMC (to the mix containing Buffer 1) and Ala-AMC (to the mix containing Buffer 2). After incubation at 37°C for 1 hour, PSAP activity was quantified by fluorescence measurement of the substrate (380 nm excitation, 460 nm emission).\n(§1) Figure 7 Effect of aminopeptidase inhibitors on Ala-AMC and Leu-AMC cleavage. HEK 293T cell extract (panels A–D) or recombinant PSAP (panels E–F) were treated with increasing concentrations of bestatin or puromycin for 30 minutes followed by the addition of substrate and incubation for 1 hour. Enzyme activity was determined by fluorescence measurement of AMC and expressed as percentage enzyme activity relative to the control without inhibitor. (A) Bestatin inhibition of HEK293T cell extract assayed with Ala-AMC. (B) Bestatin inhibition of HEK293T cell extract assayed with Leu-AMC. (C) Puromycin inhibition of HEK293T cell extract assayed with Ala-AMC. (D) Puromycin inhibition of HEK293T cell extract assayed with Leu-AMC. (E) Puromycin inhibition of purified PSAP assayed with Ala-AMC. (F) Puromycin inhibition of purified PSAP assayed with Leu-AMC. Error bars show standard error of mean (n = 4), points without error bars had error ranges smaller than the symbol size. Statistical analysis was performed using Student’s t-test: *, p≤0.05; **, p≤0.01; ***, p≤0.001; ns, no significant difference (p>0.05) versus the control.\n(§2) Figure 8 Effect of proteasome inhibitors on Ala-AMC and Leu-AMC cleavage. HEK 293T cell extract or recombinant PSAP was treated with 10 µM of each of the proteasome inhibitors for 1 hour in addition to a 30 min pre-incubation without the substrate. Enzyme activity was determined by fluorescence measurement of AMC and expressed as percentage enzyme activity relative to the control without inhibitor. Panels A and B represent the effect of proteasome inhibitors on cleavage of Ala-AMC and Leu-AMC respectively, in HEK293T cell extract. […] Error bars show standard error of mean (n = 4). Statistical analysis was performed using Student’s t-test: *, p≤0.05; **, p≤0.01; ***, p≤0.001; ns, no significant difference (p>0.05) versus the control."}, "[2]": {"tested_on": "SH-SY5Y cells", "details": "cited from earlier work"}, "[3]": {"tested_on": "HEK293T cell aminopeptidase activity (Ala-AMC cleavage)", "assay": "Aminopeptidase assay with Ala-AMC in HEK293T cell extracts", "type": "biochemical, human", "details": "HEK293T cell extract; for Enzyme activity (% control with no inhibitor): Ala-AMC", "description": "(§3) All enzyme assays described below were performed in the linear range of the assay, as determined from time-course studies. HEK293T cells were lysed by sonication in 50 mM TrisHCl buffer, pH 7.5, containing 40 mM KCl, 5 mM MgCl2, 0.5 mM ATP, and 1 mM DTT (Buffer 1).\n(§4) To measure TPP2, the fluorescent substrate was Ala-Ala-Phe-AMC. Aminopeptidase (AP) assays were performed with Leu-AMC and Ala-AMC, which detect leucine aminopeptidase (LAP), puromycin-sensitive aminopeptidase (PSAP), and other enzymes. To measure the effect of aminopeptidase/proteasome inhibitors on cleavage of Ala-Ala-Phe-AMC and Leu-AMC, 1∶50 dilution of the cell extract was pre-incubated with the inhibitor and Buffer 1 for 30 min, followed by addition of 100 µM final concentration of the respective substrate. For Ala-AMC, the same dilution of the cell extract was pre-incubated with the inhibitor and 50 mM MOPS buffer, pH 7.5, containing 40 mM KCl, 5 mM MgCl2, 0.5 mM ATP, and 1 mM DTT (Buffer 2), followed by addition of 100 µM final concentration of the substrate. After incubation at 37°C for 1 hour, enzyme activity was quantified by fluorescence measurement of the substrate (380 nm excitation, 460 nm emission).\nas §1, §2"}, "[4]": {"molecular_target": "26S proteasome (Saccharomyces cerevisiae, UniProt P23724+P30656)", "assay": "Chymotryptic-like activity of purified yeast 26S proteasome (Suc-Leu-Leu-Val-Tyr-AMC)", "type": "biochemical", "details": "in the presence of ATP", "description": "(§5) Proteasome activity was quantified by measuring the kinetics of fluorescence release (380 nm excitation, 460 nm emission). Fluorescence was measured at an interval of 30 seconds for 30 minutes with 5 seconds of mixing prior to each cycle. Proteasomes were purified as described previously, [35].\n(§6) After incubation for 15 minutes, enzyme activity was measured by monitoring the fluorescence kinetics for the next 30 minutes. […] Enzyme activity is expressed as percent control without inhibitor. Error bars show standard error of the mean; error bars smaller than symbol size are not visible."}, "[5]": {"tested_on": "tripeptidyl peptidase 2 (TPP2)", "assay": "Ala-Ala-Phe-AMC cleavage (TPP2 substrate) in HEK293T cell extracts", "type": "biochemical, human", "details": "HEK293T cell extract, up to 5 µM", "description": "as §3, §4\nEnzyme activity was determined by fluorescence measurement of AMC and expressed as percentage enzyme activity relative to the control lacking inhibitor. […]"}, "[6]": {"tested_on": "HEK293T cells", "details": "HEK293T cells; cited from earlier work"}, "[7]": {"molecular_target": "T2, Blm10-activated 20S core particle (Saccharomyces cerevisiae, UniProt P23724+P30656)", "T2 construct": "various proteasome forms purified from yeast; made in house; host or cells: yeast", "assay": "Chymotryptic-like activity of purified yeast Blm10-20S (Suc-Leu-Leu-Val-Tyr-AMC)", "type": "biochemical", "details": "in the absence of ATP", "description": "as §5, §6"}, "[8]": {"tested_on": "HEK293T cell aminopeptidase activity (Leu-AMC cleavage)", "assay": "Aminopeptidase assay with Leu-AMC in HEK293T cell extracts", "type": "biochemical, human", "details": "HEK293T cell extract, 10 µM inhibitor", "description": "as §3, §4, §1, §2"}, "[9]": {"tested_on": "open gate mutant of the 20S core particle", "assay": "Chymotryptic-like activity of open gate mutant of yeast 20S (Suc-Leu-Leu-Val-Tyr-AMC)", "type": "biochemical", "details": "in the absence of ATP", "description": "as §5, §6"}, "[10]": {"molecular_target": "T3, 20S proteasome core particle (Saccharomyces cerevisiae, UniProt P23724+P30656)", "T3 construct": "various proteasome forms purified from yeast; made in house; host or cells: yeast", "assay": "Chymotryptic-like activity of purified yeast 20S core particle (Suc-Leu-Leu-Val-Tyr-AMC)", "type": "biochemical", "description": "as §5, §6"}},
  "data": [
    {"smiles": "CC(C)C[C@H](NC(=O)[C@H](Cc1ccccc1)NC(=O)c1cnccn1)B(O)O", "note": "[bortezomib]", "values": [
      {"measurement": "effect on cleavage of Ala-AMC by purified PSAP", "setting": "[1]", "value": "no significant effect"},
      {"measurement": "change in levels of intracellular peptides (peptidome)", "setting": "[2]", "value": "increase in the levels of most intracellular peptides"},
      {"measurement": "effect on cleavage of Ala-AMC", "setting": "[3]; 10 µM inhibitor", "value": "partially inhibited"},
      {"measurement": "Enzyme activity (% control with no inhibitor)", "setting": "[3]; bestatin 50 µM together with bortezomib 10 µM", "value": "14.8±0.6 % control with no inhibitor"},
      {"measurement": "Enzyme activity (% control with no inhibitor)", "setting": "[3]; bestatin 50 µM together with bortezomib 50 µM", "value": "14.8±0.8 % control with no inhibitor"},
      {"measurement": "inhibition of chymotryptic-like activity, 26S compared with 20S", "setting": "[4]", "value": "comparable inhibition"},
      {"measurement": "inhibition of Ala-Ala-Phe-AMC cleavage", "setting": "[5]", "value": "did not show significant inhibition"},
      {"measurement": "change in levels of intracellular peptides (peptidome)", "setting": "[6]", "value": "increase in the levels of most intracellular peptides"},
      {"measurement": "inhibition of chymotryptic-like activity, compared among 20S forms", "setting": "[7]", "value": "comparable potency"},
      {"measurement": "effect on cleavage of Leu-AMC", "setting": "[8]", "value": "partially inhibited"},
      {"measurement": "inhibition of chymotryptic-like activity, compared among 20S forms", "setting": "[9]", "value": "comparable potency"},
      {"measurement": "inhibition of chymotryptic-like activity, compared among 20S forms", "setting": "[10]; in the absence of ATP", "value": "comparable potency"},
      {"measurement": "inhibition of chymotryptic-like activity, 20S compared with 26S", "setting": "[10]; in the presence of ATP", "value": "comparable inhibition"}
    ]}
  ]
}
